One data set has as its system HIV-1 wild-type strain. Kind of data set: General antiviral assay, cell-based virus replication in MT4-LTR-EGFP cells, wild-type strain. To be noted: wild-type strain IIIB, MT4-LTR-EGFP cells. A digest of the protocol: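 HIV LTR-driven EGFP reporter MT4 cells (150,000 cells/ml) infected at MOI 0.0025 with or without inhibitor at various concentrations. Read-out either GFP fluorescence on day 3 post-infection or resazurin cell viability on day 4.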

Data set [1] deals with HIV-1 Strain A (M046I, I084V). Kind of data set: microbe, parasite or virus in culture. The class given is cell-based. To be noted: clinical isolate Strain A; read-out: A EC50. A digest of the protocol:
(§1)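 MT4 cells stably carrying an HIV LTR-driven EGFP reporter (150,000 cells/ml) were infected at MOI 0.0025 with or without inhibitor dilutions. Replication was read either as GFP fluorescence on day 3 post-infection or as cell viability by resazurin on day 4.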

The test system of data set [2] is HIV-1 Strain B (M046I, I050V). Put plainly: microbe, parasite or virus in culture. The class given is cell-based. To be noted: clinical isolate Strain B; read-out: B EC50. A digest of the protocol:
as §1

In data set [3] the test system is HIV-1 Strain C (G048G/V, V082A). Kind of data set: microbe, parasite or virus in culture. The data set is classed as cell-based. The following applies: clinical isolate Strain C; read-out: C EC50. A digest of the protocol: as §1
In another data set the test system is mock-infected MT4 cells. Put plainly: General toxicity assay on mock-infected MT4 cells with CMV-EGFP reporter (CC50). The data set is classed as cell-based.
The test system of a further data set is HIV-1 IIIB. Kind of data set: 50% HS-Rezazurin: antiviral assay in the presence of 50% human serum, MT-4 cells, resazurin cell viability. The class given is cell-based. A digest of the protocol:
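MT-4 cells infected with HIV-1 IIIB (MOI 0.001 to 0.01 CCID50/cell) for 1 h, washed, then plated onto serial compound dilutions in 50% human serum (10% FCS alternative). After 4 days, EC50 derived from resazurin cell viability.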
(The colour change of resazurin is a common sign of viable cells or microbes.)

Setting [4] is: MT4LTR cells, read-out: TOX-MT4LTR (CC50).
[5] abbreviates: mock-infected MT4 cells with CMV-EGFP reporter, read-out: TOX-MT4CMV (CC50).

Like-named read-outs stand apart in the source and are kept apart here. A value given as a limit tells only on which side of the number the result lay.

In general, EC50 refers to the concentration at which the effect is half-maximal. Broadly, the CC50 is the concentration giving 50% cytotoxicity. On to `COC(=O)N[C@H](C(=O)N[C@@H](Cc1ccc(-c2cnc(N(C)C)nc2)cc1)[C@@H](O)C[C@@H](Cc1cccc(F)c1)C(=O)N[C@H]1c2cc(F)ccc2OC[C@H]1O)C(C)(C)C` [Compound 62], for which the EC50 with HIV-1 wild-type strain stood at 3.2 nM; in data set [1], 2.2 nM; in data set [2], 1.5 nM; in data set [3], 0.9 nM; in the data set on HIV-1 IIIB, 16.3 nM. For the same molecule, in the data set with mock-infected MT4 cells (setting [4]), the CC50 was > 32000 nM.

For `COC(=O)N[C@H](C(=O)N[C@@H](Cc1ccc(-c2cnc(N(C)C)nc2)cc1)[C@@H](O)C[C@@H](Cc1ccccc1Cl)C(=O)N[C@H]1c2cc(F)ccc2OC[C@H]1O)C(C)(C)C` [Compound 63], the EC50 with HIV-1 wild-type strain stood at 1.5 nM; in data set [1], 1.2 nM; in data set [2], 0.7 nM; in data set [3] it was 0.6 nM; in the data set with HIV-1 IIIB it was 9.4 nM. Moreover, the CC50 in the data set with mock-infected MT4 cells (setting [4]) was > 32000 nM.

Consider `COC(=O)N[C@H](C(=O)N[C@@H](Cc1ccc(-c2cnc(OC)nc2)cc1)[C@@H](O)C[C@@H](Cc1cccc(F)c1)C(=O)N[C@H]1c2cc(F)ccc2OC[C@H]1O)C(C)(C)C` [Compound 65], for which the EC50 in the data set on HIV-1 wild-type strain stood at 9.1 nM; in data set [1], 4.5 nM; in data set [2] it was 3.6 nM; in data set [3], 2.3 nM; in the data set on HIV-1 IIIB, 24.7 nM. The CC50 in the data set on mock-infected MT4 cells (setting [4]) was > 32000 nM.

For `COC(=O)N[C@H](C(=O)N[C@@H](Cc1ccc(-c2ccc(OC)nc2)cc1)[C@@H](O)C[C@@H](Cc1ccccc1F)C(=O)N[C@H]1c2cc(C)ccc2OC[C@H]1O)C(C)(C)C` [Compound 66], the EC50 with HIV-1 wild-type strain amounted to 0.9 nM; in data set [1], 0.8 nM; in data set [2] it was 0.8 nM; in data set [3] it was 0.5 nM; in the data set on HIV-1 IIIB it was 7.7 nM. For the same molecule, the CC50 in the data set with mock-infected MT4 cells (setting [4]) is > 32000 nM.

For the molecule `COC(=O)N[C@H](C(=O)N[C@@H](Cc1ccc(-c2ccc(OC)nc2)cc1)[C@@H](O)C[C@@H](Cc1ccccc1Cl)C(=O)N[C@H]1c2cc(F)ccc2OC[C@H]1O)C(C)(C)C` [Compound 67], the EC50 with HIV-1 wild-type strain was found to be 2.9 nM; in data set [1], 2.1 nM; in data set [2] it was 1.2 nM; in data set [3], 1 nM; in the data set on HIV-1 IIIB it was 5.3 nM. Moreover, the CC50 in the data set on mock-infected MT4 cells (setting [4]) and with mock-infected MT4 cells (setting [5]) was > 32000 nM each time.

Regarding `CN(C)c1ccc(-c2ccc(C[C@H](NC(=O)O[C@H]3CO[C@H]4OCC[C@H]43)[C@@H](O)C[C@@H](Cc3ccccc3F)C(=O)N[C@H]3c4cc(F)ccc4OC[C@H]3O)cc2)cn1` [Compound 68], the EC50 worked out at 3 nM in the data set with HIV-1 wild-type strain; 2.2 nM in data set [1]; 1.5 nM in data set [2]; 1.3 nM in data set [3]; 9.4 nM in the data set with HIV-1 IIIB. The CC50 in the data set on mock-infected MT4 cells (setting [5]) is > 32000 nM.

Turning to `COc1cccc(C[C@H](C[C@H](O)[C@H](Cc2ccc(-c3ccc(OC)nc3)cc2)NC(=O)O[C@H]2CO[C@H]3OCC[C@H]32)C(=O)N[C@H]2c3cc(Cl)ccc3OC[C@H]2O)c1` [Compound 70], the EC50 came to 2.6 nM with HIV-1 wild-type strain; 1.6 nM in data set [1]; 1.6 nM in data set [2]; 1.2 nM in data set [3]; 11.4 nM in the data set on HIV-1 IIIB. In addition, the half-maximal cytotoxic concentration (CC50) with mock-infected MT4 cells (setting [4]) and in the data set with mock-infected MT4 cells (setting [5]) was > 32000 nM each time.

For the molecule `COc1cccc(C[C@H](C[C@H](O)[C@H](Cc2ccc(-c3csc(N(C)C)n3)cc2)NC(=O)O[C@H]2CO[C@H]3OCC[C@H]32)C(=O)N[C@H]2c3cc(Cl)ccc3OC[C@H]2O)c1` [Compound 71], the EC50 in the data set with HIV-1 wild-type strain came out at 2.1 nM; in data set [1], 2.2 nM; in data set [2], 2.3 nM; in data set [3] it was 1 nM; in the data set with HIV-1 IIIB, 10.9 nM. Also, the CC50 with mock-infected MT4 cells (setting [4]) and with mock-infected MT4 cells (setting [5]) was > 32000 nM in each case.

With `COc1ccc(-c2ccc(C[C@H](NC(=O)O[C@H]3CO[C@H]4OCC[C@H]43)[C@@H](O)C[C@@H](Cc3ccccc3F)C(=O)N[C@H]3c4cc(Cl)ccc4OC[C@H]3O)cc2)cn1` [Compound 72], the EC50 came to 1.5 nM in the data set with HIV-1 wild-type strain; 0.8 nM in data set [1]; 0.8 nM in data set [2]; 0.5 nM in data set [3]; 5.8 nM in the data set on HIV-1 IIIB. Moreover, the CC50 in the data set with mock-infected MT4 cells (setting [4]) is > 32000 nM.

As for `COc1ccc(-c2ccc(C[C@H](NC(=O)O[C@H]3CO[C@H]4OCC[C@H]43)[C@@H](O)C[C@@H](Cc3cccc(OC(F)(F)F)c3)C(=O)N[C@H]3c4cc(Cl)ccc4OC[C@H]3O)cc2)cn1` [Compound 73], the EC50 in the data set with HIV-1 wild-type strain is 3.3 nM; in data set [1], 3.7 nM; in data set [2], 4.1 nM; in data set [3], 1.9 nM; in the data set with HIV-1 IIIB, 9.2 nM. The CC50 in the data set on mock-infected MT4 cells (setting [4]) was > 32000 nM.

In the case of `COc1ccc(-c2ccc(C[C@H](NC(=O)O[C@H]3CO[C@H]4OCC[C@H]43)[C@@H](O)C[C@@H](Cc3ccccc3F)C(=O)N[C@H]3c4ccsc4CC[C@H]3O)cc2)cn1` [Compound 74], the EC50 came out at 0.9 nM in the data set on HIV-1 wild-type strain; 0.8 nM in data set [1]; 0.6 nM in data set [2]; 0.4 nM in data set [3]; 3.5 nM with HIV-1 IIIB. Moreover, in the data set with mock-infected MT4 cells (setting [4]), the CC50 was > 32000 nM.

With `COc1ccc(-c2ccc(C[C@H](NC(=O)O[C@H]3CO[C@H]4OCC[C@H]43)[C@@H](O)C[C@@H](Cc3ccccc3F)C(=O)N[C@H]3c4cccc(Cl)c4OC[C@H]3O)cc2)cn1` [Compound 75], the EC50 in the data set with HIV-1 wild-type strain came out at 2.4 nM; in data set [1], 1.4 nM; in data set [2] it was 0.9 nM; in data set [3] it was 0.8 nM; in the data set with HIV-1 IIIB, 9.3 nM. Moreover, in the data set on mock-infected MT4 cells (setting [4]), the CC50 is > 32000 nM.

As to `Cc1cc(-c2ccc(C[C@H](NC(=O)O[C@H]3CO[C@H]4OCC[C@H]43)[C@@H](O)C[C@@H](Cc3ccccc3F)C(=O)N[C@H]3c4cc(Cl)ccc4OC[C@H]3O)cc2)cc(C)n1` [Compound 76], the EC50 in the data set with HIV-1 wild-type strain was found to be 2.9 nM; in data set [1], 1.7 nM; in data set [2] it was 1.5 nM; in data set [3] it was 1.1 nM; in the data set with HIV-1 IIIB, 20.5 nM. Besides, the CC50 in the data set on mock-infected MT4 cells (setting [4]) was > 32000 nM.

In the case of `COc1ccc(-c2ccc(C[C@H](NC(=O)O[C@H]3CO[C@H]4OCC[C@H]43)[C@@H](O)C[C@@H](Cc3ccccc3Cl)C(=O)N[C@H]3c4cc(F)ccc4OC[C@H]3O)cc2)cn1` [Compound 77], the concentration for a half-maximal effect (EC50) with HIV-1 wild-type strain is 1.9 nM; in data set [1], 1.6 nM; in data set [2], 1 nM; in data set [3], 0.7 nM; with HIV-1 IIIB, 6.5 nM. Besides, the CC50 in the data set with mock-infected MT4 cells (setting [4]) is > 32000 nM.

As to `COc1ccc(-c2ccc(C[C@H](NC(=O)O[C@H]3CO[C@H]4OCC[C@H]43)[C@@H](O)C[C@@H](Cc3ccccc3Cl)C(=O)N[C@H]3c4cc(Cl)ccc4OC[C@H]3O)cc2)cn1` [Compound 78], the EC50 with HIV-1 wild-type strain stood at 2.1 nM; in data set [1], 1.9 nM; in data set [2] it was 1.4 nM; in data set [3] it was 0.9 nM; in the data set with HIV-1 IIIB it was 10.6 nM. Further, the CC50 in the data set on mock-infected MT4 cells (setting [4]) is > 32000 nM.

With `COc1ccc(-c2ccc(C[C@H](NC(=O)O[C@H]3CO[C@H]4OCC[C@H]43)[C@@H](O)C[C@@H](Cc3ccccc3F)C(=O)N[C@H]3c4cc(F)ccc4OC[C@H]3O)cc2)cn1` [Compound 80], the EC50 amounted to 2.4 nM in the data set with HIV-1 wild-type strain; 1.5 nM in data set [1]; 1.1 nM in data set [2]; 0.8 nM in data set [3]; 10.9 nM in the data set with HIV-1 IIIB. Besides, the CC50 with mock-infected MT4 cells (setting [4]) was > 32000 nM.

As for `COc1ccc(-c2ccc(C[C@H](NC(=O)O[C@H]3CO[C@H]4OCC[C@H]43)[C@@H](O)C[C@@H](Cc3ccccc3F)C(=O)N[C@H]3c4cc(Cl)cc(F)c4OC[C@H]3O)cc2)cn1` [Compound 81], the EC50 in the data set on HIV-1 wild-type strain was determined as 4.1 nM; in data set [1] it was 2.8 nM; in data set [2] it was 2.4 nM; in data set [3], 1.3 nM; in the data set with HIV-1 IIIB, 13.4 nM. Moreover, the CC50 with mock-infected MT4 cells (setting [4]) is > 32000 nM.

For `COc1ccc(-c2ccc(C[C@H](NC(=O)O[C@H]3CO[C@H]4OCC[C@H]43)[C@@H](O)C[C@@H](Cc3ccccc3F)C(=O)N[C@H]3[C@H](C)CCC[C@H]3O)cc2)cn1` [Compound 82], the EC50 with HIV-1 wild-type strain is 1.8 nM; in data set [1] it was 1.1 nM; in data set [2], 0.8 nM; in data set [3], 0.7 nM; in the data set with HIV-1 IIIB, 5.1 nM. The CC50 with mock-infected MT4 cells (setting [4]) was > 27000 nM.

`COC(=O)N[C@H](C(=O)N[C@@H](Cc1ccc(-c2cnc(C)s2)cc1)[C@@H](O)C[C@@H](Cc1ccccc1F)C(=O)N[C@H]1[C@H](C)CC[C@H]1O)C(C)(C)C` [Compound 83]: the EC50 stood at 4 nM in the data set on HIV-1 wild-type strain; 8.3 nM in data set [1]; 2.5 nM in data set [2]; 2.7 nM in data set [3]; 14.3 nM with HIV-1 IIIB. In the data set with mock-infected MT4 cells (setting [5]), the CC50 is > 32000 nM.

`CCc1ncc(-c2ccc(C[C@H](NC(=O)[C@@H](NC(=O)OC)C(C)(C)C)[C@@H](O)C[C@@H](Cc3ccccc3F)C(=O)N[C@H](C(=O)NC)C(C)(C)C)cc2)s1` [Compound 84]: the EC50 with HIV-1 wild-type strain came out at 6.4 nM; in data set [1] it was 4.7 nM; in data set [2], 3.3 nM; in data set [3], 2.4 nM; in the data set on HIV-1 IIIB it was 28 nM. For the same molecule, the 50% cytotoxic concentration (CC50) with mock-infected MT4 cells (setting [5]) was > 32000 nM.
